# In the NIST ThermoML archive (doi:10.1021/je200811n):
# Numbers after ± are expanded uncertainties.
# Conditions: Hot wire method
smiles,measurement,setting,value
"F/C=C/C(F)(F)F [trans-1,3,3,3-tetrafluoropropene]",thermal conductivity,"322.82 K, 587 kPa, Gas",0.01562 ± 0.00053 W/m/K
same,thermal conductivity,"322.86 K, 21602 kPa, Liquid",0.08015 ± 0.00088 W/m/K
same,thermal conductivity,"322.89 K, 858 kPa, Gas",0.01585 ± 0.00053 W/m/K
same,thermal conductivity,"322.9 K, 15321 kPa, Liquid",0.07653 ± 0.00085 W/m/K
same,thermal conductivity,"322.91 K, 884 kPa, Gas",0.01588 ± 0.00053 W/m/K
same,thermal conductivity,"322.91 K, 5442 kPa, Liquid",0.06937 ± 0.00078 W/m/K
same,thermal conductivity,"322.93 K, 431 kPa, Gas",0.01557 ± 0.00052 W/m/K
same,thermal conductivity,"322.94 K, 5376 kPa, Liquid",0.06973 ± 0.00078 W/m/K
same,thermal conductivity,"322.99 K, 96 kPa, Gas",0.01599 ± 0.00054 W/m/K
same,thermal conductivity,"323 K, 710 kPa, Gas",0.01574 ± 0.00053 W/m/K
same,thermal conductivity,"323.07 K, 301 kPa, Gas",0.01559 ± 0.00052 W/m/K
same,thermal conductivity,"323.15 K, Liquid",0.06606 ± 0.00047 W/m/K
same,thermal conductivity,"323.18 K, 586 kPa, Gas",0.01563 ± 0.00053 W/m/K
same,thermal conductivity,"323.19 K, 193 kPa, Gas",0.01574 ± 0.00053 W/m/K
same,thermal conductivity,"323.23 K, 856 kPa, Gas",0.01588 ± 0.00053 W/m/K
same,thermal conductivity,"323.26 K, 882 kPa, Gas",0.01587 ± 0.00053 W/m/K
same,thermal conductivity,"323.3 K, 430 kPa, Gas",0.01563 ± 0.00053 W/m/K
same,thermal conductivity,"323.36 K, 707 kPa, Gas",0.01574 ± 0.00053 W/m/K
same,thermal conductivity,"323.41 K, 96 kPa, Gas",0.0162 ± 0.00054 W/m/K
same,thermal conductivity,"323.46 K, 301 kPa, Gas",0.01566 ± 0.00053 W/m/K
same,thermal conductivity,"323.55 K, 585 kPa, Gas",0.01566 ± 0.00053 W/m/K
same,thermal conductivity,"323.61 K, 193 kPa, Gas",0.01581 ± 0.00053 W/m/K
same,thermal conductivity,"323.71 K, 429 kPa, Gas",0.01566 ± 0.00053 W/m/K
same,thermal conductivity,"323.86 K, 96 kPa, Gas",0.01599 ± 0.00054 W/m/K
same,thermal conductivity,"323.88 K, 301 kPa, Gas",0.01569 ± 0.00053 W/m/K
same,thermal conductivity,"324.05 K, 193 kPa, Gas",0.01583 ± 0.00053 W/m/K
same,thermal conductivity,"324.33 K, 96 kPa, Gas",0.01609 ± 0.00054 W/m/K
same,thermal conductivity,"331.18 K, 96 kPa, Gas",0.01637 ± 0.00055 W/m/K
same,thermal conductivity,"331.19 K, 198 kPa, Gas",0.01658 ± 0.00056 W/m/K
same,thermal conductivity,"331.21 K, 298 kPa, Gas",0.01665 ± 0.00056 W/m/K
same,thermal conductivity,"331.4 K, 96 kPa, Gas",0.0162 ± 0.0005 W/m/K
same,thermal conductivity,"331.42 K, 198 kPa, Gas",0.01638 ± 0.00055 W/m/K
same,thermal conductivity,"331.43 K, 298 kPa, Gas",0.01653 ± 0.00055 W/m/K
same,thermal conductivity,"331.64 K, 96 kPa, Gas",0.01611 ± 0.00054 W/m/K
same,thermal conductivity,"331.65 K, 197 kPa, Gas",0.01629 ± 0.00055 W/m/K
same,thermal conductivity,"331.67 K, 298 kPa, Gas",0.0164 ± 0.0006 W/m/K
same,thermal conductivity,"331.9 K, 96 kPa, Gas",0.01602 ± 0.00054 W/m/K
same,thermal conductivity,"331.9 K, 298 kPa, Gas",0.01635 ± 0.00055 W/m/K
same,thermal conductivity,"331.91 K, 197 kPa, Gas",0.01618 ± 0.00054 W/m/K
same,thermal conductivity,"332.16 K, 298 kPa, Gas",0.01629 ± 0.00055 W/m/K
same,thermal conductivity,"332.17 K, 198 kPa, Gas",0.01612 ± 0.00054 W/m/K
same,thermal conductivity,"332.17 K, 1166 kPa, Gas",0.01695 ± 0.0003 W/m/K
same,thermal conductivity,"332.18 K, 1084 kPa, Gas",0.01688 ± 0.0003 W/m/K
same,thermal conductivity,"332.3 K, 442 kPa, Gas",0.01671 ± 0.00056 W/m/K
same,thermal conductivity,"332.33 K, 813 kPa, Gas",0.0168 ± 0.00056 W/m/K
same,thermal conductivity,"332.38 K, 585 kPa, Gas",0.01673 ± 0.00056 W/m/K
same,thermal conductivity,"332.42 K, 298 kPa, Gas",0.01634 ± 0.00055 W/m/K
same,thermal conductivity,"332.43 K, 600 kPa, Gas",0.0167 ± 0.00056 W/m/K
same,thermal conductivity,"332.46 K, 434 kPa, Gas",0.01674 ± 0.00056 W/m/K
same,thermal conductivity,"332.46 K, 1166 kPa, Gas",0.01705 ± 0.00031 W/m/K
same,thermal conductivity,"332.47 K, 1082 kPa, Gas",0.01688 ± 0.0003 W/m/K
same,thermal conductivity,"332.52 K, 198 kPa, Gas",0.0166 ± 0.00056 W/m/K
same,thermal conductivity,"332.63 K, 813 kPa, Gas",0.01684 ± 0.00056 W/m/K
same,thermal conductivity,"332.65 K, 442 kPa, Gas",0.01674 ± 0.00056 W/m/K
same,thermal conductivity,"332.7 K, 96 kPa, Gas",0.01695 ± 0.00057 W/m/K
same,thermal conductivity,"332.71 K, 584 kPa, Gas",0.0167 ± 0.00056 W/m/K
same,thermal conductivity,"332.75 K, 598 kPa, Gas",0.01664 ± 0.00056 W/m/K
same,thermal conductivity,"332.76 K, 1166 kPa, Gas",0.01708 ± 0.00031 W/m/K
same,thermal conductivity,"332.79 K, 1079 kPa, Gas",0.01686 ± 0.0003 W/m/K
same,thermal conductivity,"332.8 K, 434 kPa, Gas",0.01674 ± 0.00056 W/m/K
same,thermal conductivity,"332.9 K, 198 kPa, Gas",0.01664 ± 0.00056 W/m/K
same,thermal conductivity,"332.91 K, 871 kPa, Gas",0.01664 ± 0.00056 W/m/K
same,thermal conductivity,"332.97 K, 813 kPa, Gas",0.01681 ± 0.00056 W/m/K
same,thermal conductivity,"333.01 K, 444 kPa, Gas",0.01648 ± 0.00055 W/m/K
same,thermal conductivity,"333.08 K, 1166 kPa, Gas",0.01705 ± 0.00031 W/m/K
same,thermal conductivity,"333.11 K, 1077 kPa, Gas",0.0169 ± 0.0003 W/m/K
same,thermal conductivity,"333.13 K, 96 kPa, Gas",0.017 ± 0.00057 W/m/K
same,thermal conductivity,"333.15 K, Liquid",0.06293 ± 0.00045 W/m/K
same,thermal conductivity,"333.26 K, 868 kPa, Gas",0.01661 ± 0.00056 W/m/K
same,thermal conductivity,"333.31 K, 198 kPa, Gas",0.01672 ± 0.00056 W/m/K
same,thermal conductivity,"333.42 K, 1165 kPa, Gas",0.01702 ± 0.0003 W/m/K
same,thermal conductivity,"333.46 K, 1075 kPa, Gas",0.01692 ± 0.0003 W/m/K
same,thermal conductivity,"333.56 K, 96 kPa, Gas",0.01706 ± 0.00057 W/m/K
same,thermal conductivity,"333.6 K, 298 kPa, Gas",0.01659 ± 0.00056 W/m/K
same,thermal conductivity,"333.74 K, 197 kPa, Gas",0.01673 ± 0.00056 W/m/K
same,thermal conductivity,"333.82 K, 441 kPa, Gas",0.01653 ± 0.00055 W/m/K
same,thermal conductivity,"333.98 K, 435 kPa, Gas",0.01662 ± 0.00056 W/m/K
same,thermal conductivity,"334.02 K, 96 kPa, Gas",0.01704 ± 0.00057 W/m/K
same,thermal conductivity,"334.02 K, 298 kPa, Gas",0.01661 ± 0.00056 W/m/K
same,thermal conductivity,"334.19 K, 197 kPa, Gas",0.01672 ± 0.00056 W/m/K
same,thermal conductivity,"334.51 K, 96 kPa, Gas",0.01712 ± 0.00057 W/m/K
same,thermal conductivity,"340.58 K, 3036 kPa, Liquid",0.06257 ± 0.0007 W/m/K
same,thermal conductivity,"340.6 K, 1565 kPa, Liquid",0.06077 ± 0.00069 W/m/K
same,thermal conductivity,"340.63 K, 3034 kPa, Liquid",0.06242 ± 0.0007 W/m/K
same,thermal conductivity,"340.65 K, 1563 kPa, Liquid",0.06068 ± 0.00068 W/m/K
same,thermal conductivity,"340.7 K, 96 kPa, Gas",0.01742 ± 0.00058 W/m/K
same,thermal conductivity,"340.73 K, 194 kPa, Gas",0.01765 ± 0.00059 W/m/K
same,thermal conductivity,"340.73 K, 5177 kPa, Liquid",0.06477 ± 0.00073 W/m/K
same,thermal conductivity,"340.75 K, 8139 kPa, Liquid",0.06735 ± 0.00075 W/m/K
same,thermal conductivity,"340.75 K, 8199 kPa, Liquid",0.06725 ± 0.00075 W/m/K
same,thermal conductivity,"340.78 K, 5176 kPa, Liquid",0.06447 ± 0.00072 W/m/K
same,thermal conductivity,"340.8 K, 8202 kPa, Liquid",0.06713 ± 0.00075 W/m/K
same,thermal conductivity,"340.82 K, 3032 kPa, Liquid",0.06247 ± 0.00071 W/m/K
same,thermal conductivity,"340.86 K, 1561 kPa, Liquid",0.06064 ± 0.00069 W/m/K
same,thermal conductivity,"340.88 K, 3031 kPa, Liquid",0.06222 ± 0.0007 W/m/K
same,thermal conductivity,"340.92 K, 97 kPa, Gas",0.01718 ± 0.00057 W/m/K
same,thermal conductivity,"340.92 K, 1560 kPa, Liquid",0.06043 ± 0.00068 W/m/K
same,thermal conductivity,"340.94 K, 194 kPa, Gas",0.0174 ± 0.0006 W/m/K
same,thermal conductivity,"341.03 K, 8138 kPa, Liquid",0.06739 ± 0.00075 W/m/K
same,thermal conductivity,"341.04 K, 20095 kPa, Liquid",0.07528 ± 0.00083 W/m/K
same,thermal conductivity,"341.06 K, 16393 kPa, Liquid",0.07294 ± 0.00081 W/m/K
same,thermal conductivity,"341.07 K, 5175 kPa, Liquid",0.06447 ± 0.00073 W/m/K
same,thermal conductivity,"341.08 K, 8204 kPa, Liquid",0.06709 ± 0.00076 W/m/K
same,thermal conductivity,"341.09 K, 3029 kPa, Liquid",0.06217 ± 0.0007 W/m/K
same,thermal conductivity,"341.09 K, 21968 kPa, Liquid",0.07668 ± 0.00085 W/m/K
same,thermal conductivity,"341.1 K, 8133 kPa, Liquid",0.06713 ± 0.00075 W/m/K
same,thermal conductivity,"341.1 K, 12136 kPa, Liquid",0.07037 ± 0.00078 W/m/K
same,thermal conductivity,"341.1 K, 20086 kPa, Liquid",0.07523 ± 0.00083 W/m/K
same,thermal conductivity,"341.12 K, 16392 kPa, Liquid",0.07302 ± 0.00081 W/m/K
same,thermal conductivity,"341.13 K, 1563 kPa, Liquid",0.06043 ± 0.00068 W/m/K
same,thermal conductivity,"341.14 K, 96 kPa, Gas",0.01698 ± 0.00057 W/m/K
same,thermal conductivity,"341.15 K, 5174 kPa, Liquid",0.06431 ± 0.00072 W/m/K
same,thermal conductivity,"341.15 K, 21974 kPa, Liquid",0.07662 ± 0.00085 W/m/K
same,thermal conductivity,"341.16 K, 194 kPa, Gas",0.01722 ± 0.00058 W/m/K
